Literature values as cited in US5084274A, “Inhibition of arterial thrombotic occlusion or thromboembolism” (Scripps Clinic and Research Foundation, priority 1987, dated 1992).

Tested on: acute arterial thrombosis
Settings: used alone or in combination

heparin
Response of acute complex arterial thrombosis (in words): unresponsive
